Measurements reported in publication PMC11509018, “Evaluation of the Role of Tanshinone I in an In Vitro System of Charcot-Marie-Tooth Disease Type 2N” (International Journal of Molecular Sciences, 2024).
Numbering of substitutions follows the chain as printed.

Assays:
[1] = target: T1, AlaRS^E337K (Homo sapiens, UniProt P49588, E337K); assay: Biolayer interferometry (BLI); assay type: binding; conditions: immobilized AlaRS^E337K, mean ± SD, triplicate
T1 construct: made in house; host or cells: E. coli BL21 (DE3), pET-21a
T1 sequence (P49588 1-968 E337K): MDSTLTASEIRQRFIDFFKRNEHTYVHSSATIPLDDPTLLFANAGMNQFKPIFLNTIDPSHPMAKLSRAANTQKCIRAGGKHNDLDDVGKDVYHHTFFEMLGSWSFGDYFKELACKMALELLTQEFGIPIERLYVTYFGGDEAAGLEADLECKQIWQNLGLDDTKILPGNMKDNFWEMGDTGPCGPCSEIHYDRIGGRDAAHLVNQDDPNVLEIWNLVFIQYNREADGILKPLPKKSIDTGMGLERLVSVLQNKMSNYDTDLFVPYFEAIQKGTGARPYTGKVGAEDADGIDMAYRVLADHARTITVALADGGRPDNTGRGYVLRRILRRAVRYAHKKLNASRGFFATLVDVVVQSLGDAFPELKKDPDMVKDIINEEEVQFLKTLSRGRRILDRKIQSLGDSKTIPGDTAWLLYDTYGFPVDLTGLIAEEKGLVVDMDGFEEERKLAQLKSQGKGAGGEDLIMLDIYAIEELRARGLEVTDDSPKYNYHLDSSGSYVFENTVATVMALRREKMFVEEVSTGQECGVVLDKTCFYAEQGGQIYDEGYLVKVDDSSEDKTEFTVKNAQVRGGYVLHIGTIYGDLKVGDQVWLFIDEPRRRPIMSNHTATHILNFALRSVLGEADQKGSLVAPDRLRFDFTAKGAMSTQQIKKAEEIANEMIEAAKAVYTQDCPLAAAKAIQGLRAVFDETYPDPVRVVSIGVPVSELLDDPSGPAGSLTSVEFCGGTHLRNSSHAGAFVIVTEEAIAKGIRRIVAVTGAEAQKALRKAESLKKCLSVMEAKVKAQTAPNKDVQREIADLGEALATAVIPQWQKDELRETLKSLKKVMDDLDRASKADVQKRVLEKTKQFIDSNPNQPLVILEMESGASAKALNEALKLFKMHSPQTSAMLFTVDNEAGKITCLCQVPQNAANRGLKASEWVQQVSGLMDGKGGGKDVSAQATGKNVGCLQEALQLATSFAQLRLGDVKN
Experimental: (§1) Furthermore, we examined the interaction of Tanshinone I with additional AlaRS CMT mutants capable of binding to Nrp1 and causing conformational changes by BLI and proteolysis assays on additional related mutants. […] To further quantify the binding of small molecules to mutant proteins, binding experiments with AlaRS^R329H proteins and small molecules were conducted using an Octet R8 system (ForteBio, Fremont, CA, USA). Purified His-tagged AlaRS^R329H proteins (500 μg/mL) were captured on Ni-NTA biosensors (ForteBio, Fremont, CA, USA), achieving a saturation response of 4–5 nm after 300 s. The biosensors were then transferred to Octet buffer (PBS with 0.01% Tween 20) for 180 s to remove loosely bound, nonspecific proteins and to establish a stable baseline. Following this, the sensors were immersed in diluted Tanshinone I (2.5–100 μM in assay buffer) for 120 s to record the association signal, and then transferred back into Octet buffer to monitor the dissociation signal for 120 s. Reference wells containing buffer instead of Tanshinone I were included to correct for baseline shifts. Additionally, a parallel set of Ni-NTA sensors in buffer served as negative reference controls to account for nonspecific binding of the compounds to the biosensor surface. The data were processed using a double reference subtraction protocol to eliminate nonspecific signals, background noise, and signal drifts caused by biosensor variability. All assays were performed in 96-well black plates with a total volume of 200 μL per well at 30 °C. Data analysis, including correction and curve fitting, was carried out using Octet® Analysis Studio 12.2.2.26. The experiment was repeated three times.

[2] = target: T2, AlaRS^N71Y (Homo sapiens, UniProt P49588, N71Y); assay: Biolayer interferometry (BLI); assay type: binding; conditions: immobilized AlaRS^N71Y, mean ± SD, triplicate
T2 construct: made in house; host or cells: E. coli BL21 (DE3), pET-21a
T2 sequence (P49588 1-968 N71Y): T1 sequence (P49588 1-968 E337K) with N71Y, K337E
Experimental: as §1

With `Cc1coc2c1C(=O)C(=O)c1c-2ccc2c(C)cccc12` [Tanshinone I] the Kd [1] was 19.2 ± 4.2 µM and the Kd [2] was 37.8 ± 6.2 µM.
